How the values were obtained:
[1] = The drug is tested on Dorea formicigenerans strain: ATCC27755 for biotransformation. The drug concentrations were measured before and after a 12-h incubation by liquid-chromatography-coupled mass spectrometry (LC–MS); details: 2 µM
[2] = The drug is tested on Collinsella intestinalis strain: DSM13280 for biotransformation. The drug concentrations were measured before and after a 12-h incubation by liquid-chromatography-coupled mass spectrometry (LC–MS); details: 2 µM
[3] = bacteroides thetaiotaomicron, 12 h, 2 µM
Description: The drug is tested on Bacteroides thetaiotaomicron strain: VPI-5482 for biotransformation. The drug concentrations were measured before and after a 12-h incubation by liquid-chromatography-coupled mass spectrometry (LC–MS)

[4] = The drug is tested on Bacteroides fragilis strain: HMW615 for biotransformation. The drug concentrations were measured before and after a 12-h incubation by liquid-chromatography-coupled mass spectrometry (LC–MS); details: 2 µM
[5] = The drug is tested on Bacteroides fragilis strain: ATCC43859 for biotransformation. The drug concentrations were measured before and after a 12-h incubation by liquid-chromatography-coupled mass spectrometry (LC–MS); details: 2 µM
[6] = The drug is tested on Bacteroides sp. WH2 strain: WH2 for biotransformation. The drug concentrations were measured before and after a 12-h incubation by liquid-chromatography-coupled mass spectrometry (LC–MS); details: bacteroides sp. wh2, 12 h, 2 µM
[7] = The drug is tested on Eubacterium rectale strain: ATCC33656 for biotransformation. The drug concentrations were measured before and after a 12-h incubation by liquid-chromatography-coupled mass spectrometry (LC–MS); details: agathobacter rectalis, 2 µM
[8] = The drug is tested on Collinsella aerofaciens strain: ATCC25986 for biotransformation. The drug concentrations were measured before and after a 12-h incubation by liquid-chromatography-coupled mass spectrometry (LC–MS); details: 2 µM
[9] = The drug is tested on Clostridium sporogenes strain: ATCC15579 for biotransformation. The drug concentrations were measured before and after a 12-h incubation by liquid-chromatography-coupled mass spectrometry (LC–MS); details: 2 µM
[10] = bacteroides thetaiotaomicron, 12 h, 2 µM; remark: listed apart in the source
Description: The drug is tested on Bacteroides thetaiotaomicron strain: 3731 for biotransformation. The drug concentrations were measured before and after a 12-h incubation by liquid-chromatography-coupled mass spectrometry (LC–MS)

[11] = bacteroides fragilis, 12 h, 2 µM
Description: The drug is tested on Bacteroides fragilis strain: 3397 (T10) for biotransformation. The drug concentrations were measured before and after a 12-h incubation by liquid-chromatography-coupled mass spectrometry (LC–MS)

[12] = The drug is tested on Bacteroides xylanisolvens strain: DSM18836 for biotransformation. The drug concentrations were measured before and after a 12-h incubation by liquid-chromatography-coupled mass spectrometry (LC–MS); details: 2 µM
[13] = The drug is tested on Providencia stuartii strain: ATCC25827 for biotransformation. The drug concentrations were measured before and after a 12-h incubation by liquid-chromatography-coupled mass spectrometry (LC–MS); details: 2 µM
[14] = akkermansia muciniphila, 12 h, 2 µM
Description: The drug is tested on Akkermansia muciniphila strain: ATCC BAA-835 for biotransformation. The drug concentrations were measured before and after a 12-h incubation by liquid-chromatography-coupled mass spectrometry (LC–MS)

[15] = The drug is tested on Bacteroides cellulosilyticus strain: DSM14838 for biotransformation. The drug concentrations were measured before and after a 12-h incubation by liquid-chromatography-coupled mass spectrometry (LC–MS); details: 2 µM
[16] = The drug is tested on Providencia rettgeri strain: DSM1131 for biotransformation. The drug concentrations were measured before and after a 12-h incubation by liquid-chromatography-coupled mass spectrometry (LC–MS); format: ADME; parameters: dose 2 uM, timepoint 0 vs 12 hours; details: 2 µM
[17] = The drug is tested on Odoribacter splanchnicus strain: fecal isolate for biotransformation. The drug concentrations were measured before and after a 12-h incubation by liquid-chromatography-coupled mass spectrometry (LC–MS); details: 2 µM
[18] = parabacteroides johnsonii, 12 h, 2 µM
Description: The drug is tested on Parabacteroides johnsonii strain: DSM18315 for biotransformation. The drug concentrations were measured before and after a 12-h incubation by liquid-chromatography-coupled mass spectrometry (LC–MS)

[19] = The drug is tested on Bacteroides coprophilus strain: DSM18228 for biotransformation. The drug concentrations were measured before and after a 12-h incubation by liquid-chromatography-coupled mass spectrometry (LC–MS); details: 2 µM
[20] = The drug is tested on Bacteroides ovatus strain: ATCC8483 for biotransformation. The drug concentrations were measured before and after a 12-h incubation by liquid-chromatography-coupled mass spectrometry (LC–MS); details: 2 µM

SMILES | Bacterial Biotransformation [1] | Bacterial Biotransformation [2] | Bacterial Biotransformation [3] | Bacterial Biotransformation [4] | Bacterial Biotransformation [5] | Bacterial Biotransformation [6] | Bacterial Biotransformation [7] | Bacterial Biotransformation [8] | Bacterial Biotransformation [9] | Bacterial Biotransformation [10] | Bacterial Biotransformation [11] | Bacterial Biotransformation [12] | Bacterial Biotransformation [13] | Bacterial Biotransformation [14] | Bacterial Biotransformation [15] | Bacterial Biotransformation [16] | Bacterial Biotransformation [17] | Bacterial Biotransformation [18] | Bacterial Biotransformation [19] | Bacterial Biotransformation [20]
CCN(C)C(=O)Oc1cccc([C@H](C)N(C)C)c1.O=C(O)C(O)C(O)C(=O)O [RIVASTIGMINE TARTRATE] | Compound NOT metabolized | Compound NOT metabolized | Compound NOT metabolized | Compound NOT metabolized | Compound NOT metabolized | Compound NOT metabolized | Compound NOT metabolized | Compound NOT metabolized | Compound NOT metabolized | Compound NOT metabolized | Compound NOT metabolized | Compound NOT metabolized | Compound NOT metabolized | Compound NOT metabolized | Compound NOT metabolized | Compound NOT metabolized | Compound NOT metabolized | Compound NOT metabolized |  | 
CC(N)C12CC3CC(CC(C3)C1)C2 (stereo not given) [RIMANTADINE] | Compound NOT metabolized | Compound NOT metabolized | Compound NOT metabolized | Compound NOT metabolized | Compound NOT metabolized | Compound NOT metabolized | Compound NOT metabolized | Compound NOT metabolized | Compound NOT metabolized | Compound NOT metabolized | Compound NOT metabolized | Compound NOT metabolized | Compound NOT metabolized |  | Compound NOT metabolized | Compound NOT metabolized | Compound NOT metabolized | Compound NOT metabolized | Compound NOT metabolized | Compound NOT metabolized
C[C@]12C=CC(=O)C=C1CC[C@@H]1[C@@H]2C(=O)C[C@@]2(C)[C@H]1CC[C@]2(O)C(=O)CO [PREDNISONE] | Compound NOT metabolized | Compound NOT metabolized | Compound NOT metabolized | Compound NOT metabolized | Compound NOT metabolized | Compound NOT metabolized | Compound NOT metabolized | Compound NOT metabolized | Compound NOT metabolized | Compound NOT metabolized | Compound NOT metabolized | Compound NOT metabolized | Compound NOT metabolized | Compound NOT metabolized | Compound NOT metabolized | Compound NOT metabolized | Compound NOT metabolized | Compound NOT metabolized | Compound NOT metabolized | Compound NOT metabolized
CCOC(=O)C1=C[C@]2(CC)CCCN3CCc4c(n1c1ccccc41)[C@@H]32 [VINPOCETINE] | Compound NOT metabolized | Compound NOT metabolized | Compound NOT metabolized | Compound NOT metabolized | Compound NOT metabolized | Compound NOT metabolized | Compound NOT metabolized | Compound NOT metabolized | Compound NOT metabolized | Compound NOT metabolized | Compound NOT metabolized |  | Compound NOT metabolized |  | Compound NOT metabolized | Compound NOT metabolized | Compound NOT metabolized |  | Compound NOT metabolized | Compound NOT metabolized
CCOc1ccc(NC(C)=O)cc1 [PHENACETIN] | Compound NOT metabolized | Compound NOT metabolized | Compound NOT metabolized | Compound NOT metabolized | Compound NOT metabolized | Compound NOT metabolized | Compound NOT metabolized | Compound NOT metabolized | Compound NOT metabolized | Compound NOT metabolized | Compound NOT metabolized | Compound NOT metabolized |  | Compound NOT metabolized | Compound NOT metabolized | Compound NOT metabolized | Compound NOT metabolized | Compound NOT metabolized | Compound NOT metabolized | Compound NOT metabolized
CCC(COC(=O)c1cc(OC)c(OC)c(OC)c1)(c1ccccc1)N(C)C.O=C(O)/C=C\C(=O)O (stereo not given) | Compound metabolized | Compound metabolized | Compound metabolized | Compound NOT metabolized | Compound NOT metabolized | Compound metabolized | Compound metabolized |  | Compound metabolized | Compound metabolized | Compound metabolized | Compound metabolized | Compound NOT metabolized | Compound metabolized | Compound NOT metabolized | Compound NOT metabolized | Compound metabolized | Compound metabolized | Compound metabolized | Compound metabolized
CCCCC1=NC2(CCCC2)C(=O)N1Cc1ccc(-c2ccccc2-c2nnn[nH]2)cc1 [IRBESARTAN] | Compound metabolized | Compound NOT metabolized | Compound metabolized | Compound metabolized | Compound metabolized | Compound metabolized | Compound NOT metabolized | Compound metabolized | Compound NOT metabolized | Compound NOT metabolized |  | Compound metabolized | Compound metabolized | Compound NOT metabolized | Compound metabolized | Compound metabolized | Compound metabolized | Compound metabolized | Compound NOT metabolized | Compound metabolized
CC[C@@]1(O)C(=O)OCc2c1cc1n(c2=O)Cc2cc3c(CN(C)C)c(O)ccc3nc2-1 [TOPOTECAN] | Compound NOT metabolized | Compound NOT metabolized | Compound NOT metabolized | Compound NOT metabolized | Compound NOT metabolized | Compound NOT metabolized | Compound NOT metabolized | Compound NOT metabolized | Compound NOT metabolized | Compound NOT metabolized | Compound NOT metabolized | Compound NOT metabolized |  | Compound NOT metabolized | Compound NOT metabolized | Compound NOT metabolized | Compound NOT metabolized | Compound NOT metabolized | Compound NOT metabolized | Compound NOT metabolized

Source: ChEMBL document CHEMBL5303573, “Mapping human microbiome drug metabolism by gut bacteria and their genes” (Nature, 2019)
